Test results as given in the NIST ThermoML archive (doi:10.1016/j.jct.2010.04.022).
± gives the expanded uncertainty stated by the source. One block for each compound: values may come before it.

Tests used:
[1] = 298.15 K; 101.33 kPa; Liquid; Vibrating tube method
[2] = refractive index (Na D-line) (dimensionless); details: 298.15 K; 101.33 kPa; Liquid; Standard Abbe refractometry
[3] = xn = mol fraction of the nth substance listed; details: 101 kPa, Liquid, Vibrating tube method

mass density [1]: 1252 ± 0.4 kg/m3
refractive index [2]: 1.50525 ± 0.00037
Compound: CCOS(=O)(=O)[O-].CC[n+]1ccccc1 [1-ethylpyridinium ethyl sulfate]

mass density ([3]; 283.15 K, x2 = 0.007): 1259.82 ± 0.99 kg/m3
mass density ([3]; 298.15 K, x2 = 0.008): 1249.78 ± 1.1 kg/m3
Compound: CCOS(=O)(=O)[O-].CC[n+]1ccccc1 [1-ethylpyridinium ethyl sulfate] + CCCCCC

mass density ([3]; 283.15 K, x2 = 0.007): 1260.51 ± 0.99 kg/m3
mass density ([3]; 298.15 K, x2 = 0.007): 1250.63 ± 0.98 kg/m3
Compound: CCOS(=O)(=O)[O-].CC[n+]1ccccc1 [1-ethylpyridinium ethyl sulfate] + CCCCCCC

mass density ([3]; 283.15 K, x2 = 0.335): 1198.57 ± 1.7 kg/m3
mass density ([3]; 298.15 K, x2 = 0.406): 1171.69 ± 1.7 kg/m3
Compound: CCOS(=O)(=O)[O-].CC[n+]1ccccc1 [1-ethylpyridinium ethyl sulfate] + c1ccccc1
